Consider one molecule from article PMC4407307 (Journal of Biomedical Science, 2015).

As usually defined, the IC50 is the concentration needed to halve the response being measured. The low end stands for greater potency, the high end for weaker potency.

The test concerns the target SHV-128 (Enterobacter cloacae, UniProt D5LIR5). Nature of the test: biochemical.

SHV-128, sequence (D5LIR5 entry or part of it): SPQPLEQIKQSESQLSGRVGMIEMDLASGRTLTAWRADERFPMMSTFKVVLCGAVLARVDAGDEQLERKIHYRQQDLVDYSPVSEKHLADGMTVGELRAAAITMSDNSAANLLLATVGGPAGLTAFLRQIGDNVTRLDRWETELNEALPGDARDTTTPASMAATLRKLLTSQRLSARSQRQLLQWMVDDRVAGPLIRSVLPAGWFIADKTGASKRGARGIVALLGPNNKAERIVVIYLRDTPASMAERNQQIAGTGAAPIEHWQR

On to `O=C(O)[C@H]1/C(=C/CO)O[C@@H]2CC(=O)N21` [clavulanic acid], for which the midpoint of inhibition, the IC50, lay at 4.2 µM.
